In patent US20250340902A1, “GENE THERAPY FOR BVES-RELATED DISORDERS” (OHIO STATE INNOVATION FOUNDATION, priority 2022, published 2025):

What was measured:
[1] = test system: WT and BVES-KO skeletal muscles; assay: Autophagic flux assay (colchicine), LC3B Western blot in GA muscles; assay type: in vivo, mouse; conditions: 0.4 mg/kg I.P. daily 7 days
Method: Autophagic flux assay. A stock solution of colchicine (4 mg/ml in sterile ddH2O, C9754, Sigma-Aldrich) was prepared and stored at −20° C. until the day of treatment. Immediately prior to administration, the colchicine stock solution was diluted to 0.1 mg/mL in sterile ddH2O water. An equal volume of colchicine (0.4 mg/kg) or vehicle was administered to mice (6 weeks old) daily via I.P. injection for 7 days. Muscle tissues were harvested from treated mice on the day after the final treatment.
Western blot. The cells and tissues were homogenized/lysed with cold RIPA buffer supplemented with protease inhibitors, and the extracted proteins were quantified by DC™ Protein Assay Reagent (Bio-Rad, Hercules, CA). The membrane extraction was performed using the Membrane Protein Extraction Kit (ab65400, Abcam, Waltham, MA) according to the manufacturer's instruction. The extracted protein samples were separated by stain-free SDS-PAGE gels (Bio-Rad, 4-15%) and transferred onto Nitrocellulose Membranes (0.45 μm). The membrane was incubated with the primary antibodies (Table 3) at 4° C. overnight. Secondary HRP-conjugated goat anti-mouse (1:4000) and goat anti-rabbit (1:4000) antibodies were obtained from Cell Signaling Technology (Danvers, MA). […] Western blots were quantified using Image Lab 6.0.1 software (Bio-Rad Laboratories, Hercules, CA) according to the manufacturer's instruction.

[2] = test system: ADCY3/ADCY6 double KO HEK293 cells with stable expression of cAMPr; assay: cAMPr reporter assay; assay type: cell-based, human; conditions: 500 μM
[3] = test system: BVES-KO mice; assay: Bortezomib treatment of BVES-KO mice; assay type: in vivo, mouse; conditions: vs vehicle
Method: Histology analysis and immunofluorescence staining. The skeletal muscles were embedded in optimal cutting temperature (OCT) compound, flash frozen using isopentane chilled in liquid nitrogen and kept at −80° C. until used. Cryosections were prepared using a cryostat Leica CM3054. For hematoxylin and eosin (H&E), transversely oriented sections (10 μm) were cut at mid-point, stained and imaged using a Nikon Ti-E inverted fluorescence microscope equipped with a Lumenera Infinity Color CCD camera and a Nikon Super Fluor 20×0.75 NA objective lens (Nikon Inc., Melville, NY) as previously described.
For immunofluorescence staining, frozen tissue sections (10 μm) were fixed with 4% paraformaldehyde for 10 minutes at room temperature. After washing with PBS, the slides were blocked with 5% BSA/PBS for one hour. The slides were incubated with the indicated primary antibodies (Table 3) at 4° C. overnight. After extensive washing with PBS, the slides were incubated with the secondary antibodies (1:400) (Table 3) for one hour at room temperature. The slides were sealed with […] Antifade Mounting Medium with DAPI (Vector Laboratory, Burlingame, CA). The images were taken under a LSM780 microscope (Zeiss, Germany) and assembled to figures using Adobe Photoshop 21.0.2 (Adobe, San Jose, CA). Fiber size and CNF quantification were carried out using Myosight with manual calibration on the entire cross-sections of GA muscles.
Bortezomib Treatment. Bortezomib was purchased from Selleck Chemicals (#S0130, Houston, TX). A stock solution (5 mg/ml) dissolved in the vehicle 2% DMSO, 30% PEG300 and ddH2O were aliquoted and stored at […]. An equal volume of Bortezomib (0.8 mg/kg diluted with the vehicle) or vehicle was I.P. injected once bi-weekly into BVES-KO mice (N=6 per treatment) at 12 weeks age, respectively. After two months of treatment, force measurement and exercise evaluation were performed. Mice were sacrificed after 3-month treatment. QU and GA muscles were processed for histopathology, immunofluorescence and Western blot analyses.
Force measurement. The muscle contractility was measured using an in vivo muscle test system (Aurora Scientific Inc) as previously described. Briefly, mice were anesthetized with 2% (w/v) isoflurane and anesthesia was maintained by 2% isoflurane (w/v) during muscle contractility measurement. Maximum plantarflexion tetanic torque was measured during a train of supramaximal electric stimulations of the tibial nerve (pulse frequency 150 Hz, pulse duration 0.2 ms) using the DMA v5.501 (Aurora Scientific Inc).
Exercise and exhaustion assay. Time and distance to exhaustion was performed as previously described. Briefly, prior to training, the randomized mice were firstly acclimated to the treadmill (LE8710MTS, Harvard Apparatus) for two consecutive days at slow speed (10 cm/s) for 5 min. On the third day, mice were placed on an uphill) (15° treadmill with an initial speed of 10 cm/s, increased every 4 min by 5 cm/s. Mice were considered to be exhausted when the animal's hindlimbs remained on the electric grid for more than 10 s. Time and distance were automatically collected via the software SeDaCOM (Harvard Apparatus).

## COc1cc2c(c(OC)c1OC)-c1ccc(OC)c(=O)cc1[C@@H](NC(C)=O)CC2 [colchicine]
[1]
  LC3B (Western blot): significant increase

## CC(C)Cn1c(=O)n(C)c(=O)c2[nH]cnc21 [IBMX, 3-isobutyl-1-methylxanthine]
[2]; ADCY9-transfected cells
  cAMP (cAMPr fluorescence) change: gradual increase
[2]; cells co-transfected with BVES and ADCY9
  cAMP (cAMPr fluorescence) change: substantially reduced cAMP elevation

## CC(C)C[C@H](NC(=O)[C@H](Cc1ccccc1)NC(=O)c1cnccn1)B(O)O [bortezomib]
[3]; 0.8 mg/kg I.P. once bi-weekly, 2 months
  body weight: significantly increased
[3]; 0.8 mg/kg I.P., 2 months
  fiber size (CSA, GA): significantly increased
  muscle contractility (tetanic torque): enhanced
  physical performance on treadmill running (time to exhaustion, total running distance): improved
[3]; 0.8 mg/kg I.P.
  mass of quadriceps and gastrocnemius muscles (normalized to body weight): significantly increased
  muscle pathology (H&E staining, GA): remarkably improved
  percentage of CNFs (GA): reduced
